Experimental data from patent US20240299385A1 (ReWind Therapeutics NV, priority 2021, published 2024).

Columns and labels:
human GPR17 receptor = biological target: T1, human GPR17 receptor (Homo sapiens, UniProt Q13304); experiment: Calcium mobilization functional assay (Fluo-8, FLIPR TETRA) in HEK-293 hGPR17 (Gα-q assay); assay type: cell-based; conditions: antagonism of MDL29,951 (~EC80) induced Ca2+ signal; cell line (HEK-293 hGPR17 or HEK-293 Suchi5 hGPR17) not given
T1 construct: host or cells: HEK-293
T1 sequence (Q13304 whole entry): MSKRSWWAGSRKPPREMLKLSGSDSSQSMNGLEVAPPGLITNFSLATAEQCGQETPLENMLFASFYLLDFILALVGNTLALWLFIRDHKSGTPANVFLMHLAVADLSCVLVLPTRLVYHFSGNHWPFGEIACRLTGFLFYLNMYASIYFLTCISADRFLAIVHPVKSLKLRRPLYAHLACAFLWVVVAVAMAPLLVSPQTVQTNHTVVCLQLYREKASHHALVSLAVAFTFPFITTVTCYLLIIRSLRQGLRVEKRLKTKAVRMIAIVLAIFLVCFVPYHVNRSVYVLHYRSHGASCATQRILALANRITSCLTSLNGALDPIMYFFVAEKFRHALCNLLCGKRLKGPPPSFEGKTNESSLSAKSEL
Procedure, shortened: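 Fluo-8-loaded HEK-293 hGPR17 cells (60 min dye loading, room temperature) were preincubated with compound for twenty minutes, then challenged with agonist MDL29,951 at ~EC80, 500 nM. Intracellular calcium release via Gα-q was recorded as FLIPR fluorescence for a further 2 minutes; compounds tested in duplicate.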

NMDA receptor = conditions: selectivity, background statement; cited from earlier work

With `N#Cc1ccc(NS(=O)(=O)c2c[nH]c(-c3cncs3)c2)c(F)c1` [Cpd 641, N-(4-cyano-2-fluorophenyl)-5-(1,3-thiazol-5-yl)-1H-pyrrole-3-sulfonamide] the IC50 (human GPR17 receptor) was less than 500 nM.
`N#Cc1cc(F)c(NS(=O)(=O)c2c[nH]c(-c3cscn3)c2)cc1F` [Cpd 642, N-(4-cyano-2,5-difluorophenyl)-5-(1,3-thiazol-4-yl)-1H-pyrrole-3-sulfonamide] showed an IC50 (human GPR17 receptor) of less than 500 nM.
With `[2H]C([2H])(c1cccc(F)c1)c1c[nH]cc1S(=O)(=O)Nc1cc(F)c(C#N)cc1F` [Cpd 643, N-(4-cyano-2,5-difluorophenyl)-4-((3-fluorophenyl)methyl-d2)-1H-pyrrole-3-sulfonamide] the IC50 (human GPR17 receptor) was less than 500 nM.
Molecule `N#Cc1sc(NS(=O)(=O)c2c[nH]c(-c3ccccc3)c2)cc1F` [Cpd 644, N-(5-cyano-4-fluorothiophen-2-yl)-5-phenyl-1H-pyrrole-3-sulfonamide] has an IC50 (human GPR17 receptor) of 5000 to 50000 nM.
With `N#Cc1ccc(F)c(-c2cc(S(=O)(=O)Nc3cc(F)c(C#N)cc3F)c[nH]2)c1` [Cpd 645, N-(4-cyano-2,5-difluorophenyl)-5-(5-cyano-2-fluorophenyl)-1H-pyrrole-3-sulfonamide] the IC50 (human GPR17 receptor) was less than 500 nM.
In the case of `N#Cc1cc(F)c(NS(=O)(=O)c2c[nH]c(-c3ccsn3)c2)cc1F` [Cpd 646, N-(4-cyano-2,5-difluorophenyl)-5-(1,2-thiazol-3-yl)-1H-pyrrole-3-sulfonamide], the IC50 (human GPR17 receptor) is reported as less than 500 nM.
For `N#Cc1cc(F)c(NS(=O)(=O)c2c[nH]c(-c3cncs3)c2)cc1F` [Cpd 647, N-(4-cyano-2,5-difluorophenyl)-5-(1,3-thiazol-5-yl)-1H-pyrrole-3-sulfonamide], the IC50 (human GPR17 receptor) was less than 500 nM.
`N#Cc1cc(F)c(NS(=O)(=O)c2c[nH]c(-c3ncc(Cl)s3)c2)cc1F` [Cpd 648, 5-(5-chloro-1,3-thiazol-2-yl)-N-(4-cyano-2,5-difluorophenyl)-1H-pyrrole-3-sulfonamide] gave an IC50 (human GPR17 receptor) of less than 500 nM.
Molecule `Cc1csc(-c2cc(S(=O)(=O)Nc3cc(F)c(C#N)cc3F)c[nH]2)n1` [Cpd 649, N-(4-cyano-2,5-difluorophenyl)-5-(4-methyl-1,3-thiazol-2-yl)-1H-pyrrole-3-sulfonamide] has an IC50 (human GPR17 receptor) of less than 500 nM.
Work on `N#Cc1ccc(F)c(-c2cc(S(=O)(=O)Nc3cc(F)c(OC(F)F)cc3F)c[nH]2)c1` [Cpd 650, 5-(5-cyano-2-fluorophenyl)-N-[4-(difluoromethoxy)-2,5-difluorophenyl]-1H-pyrrole-3-sulfonamide] yielded an IC50 (human GPR17 receptor) of less than 500 nM.
In the case of `N#Cc1cc(F)c(NS(=O)(=O)c2c[nH]c(-c3coc4ccccc34)c2)cc1F` [Cpd 651, 5-(1-benzofuran-3-yl)-N-(4-cyano-2,5-difluorophenyl)-1H-pyrrole-3-sulfonamide], the IC50 (human GPR17 receptor) is reported as less than 500 nM.
For `COc1c(F)cccc1-c1cc(S(=O)(=O)Nc2cc(F)c(C#N)cc2F)c[nH]1` [Cpd 652, N-(4-cyano-2,5-difluorophenyl)-5-(3-fluoro-2-methoxyphenyl)-1H-pyrrole-3-sulfonamide], the IC50 (human GPR17 receptor) was less than 500 nM.
`Cc1occc1-c1cc(S(=O)(=O)Nc2cc(F)c(C(F)(F)F)cc2F)c[nH]1` [Cpd 653, N-[2,5-difluoro-4-(trifluoromethyl)phenyl]-5-(2-methylfuran-3-yl)-1H-pyrrole-3-sulfonamide] gave an IC50 (human GPR17 receptor) of less than 500 nM.
For `N#Cc1cc(F)c(NS(=O)(=O)c2c[nH]c(-c3cccc(F)c3)c2)cc1F` [Cpd 654, N-(4-cyano-2,5-difluorophenyl)-5-(3-fluorophenyl)-1H-pyrrole-3-sulfonamide], the IC50 (human GPR17 receptor) was less than 500 nM.
Work on `O=S(=O)(Nc1nc(F)c(OCCF)cc1F)c1c[nH]c(-c2cc(Cl)ccc2F)c1` [Cpd 655, 5-(5-chloro-2-fluorophenyl)-N-[3,6-difluoro-5-(2-fluoroethoxy)pyridin-2-yl]-1H-pyrrole-3-sulfonamide] yielded an IC50 (human GPR17 receptor) of less than 500 nM.
In the case of `N#Cc1cc(F)c(NS(=O)(=O)c2c[nH]c(-c3ccns3)c2)cc1F` [Cpd 656, N-(4-cyano-2,5-difluorophenyl)-5-(1,2-thiazol-5-yl)-1H-pyrrole-3-sulfonamide], the IC50 (human GPR17 receptor) is reported as 500 to 5000 nM.
`N#Cc1cc(F)c(NS(=O)(=O)c2c[nH]c(-c3cnsc3)c2)cc1F` [Cpd 657, N-(4-cyano-2,5-difluorophenyl)-5-(1,2-thiazol-4-yl)-1H-pyrrole-3-sulfonamide] gave an IC50 (human GPR17 receptor) of 500 to 5000 nM.
For `N#Cc1cc(F)c(NS(=O)(=O)c2c[nH]c(-c3ncco3)c2)cc1F` [Cpd 658, N-(4-cyano-2,5-difluorophenyl)-5-(1,3-oxazol-2-yl)-1H-pyrrole-3-sulfonamide], the IC50 (human GPR17 receptor) was 500 to 5000 nM.
`Cc1csc(-c2cc(S(=O)(=O)Nc3cc(F)c(OC(F)F)cc3F)c[nH]2)c1` [Cpd 659, N-[4-(difluoromethoxy)-2,5-difluorophenyl]-5-(4-methylthiophen-2-yl)-1H-pyrrole-3-sulfonamide] showed an IC50 (human GPR17 receptor) of less than 500 nM.
For `COc1csc(-c2cc(S(=O)(=O)Nc3cc(F)c(OC(F)F)cc3F)c[nH]2)c1` [Cpd 660, N-[4-(difluoromethoxy)-2,5-difluorophenyl]-5-(4-methoxythiophen-2-yl)-1H-pyrrole-3-sulfonamide], the IC50 (human GPR17 receptor) was less than 500 nM.
`COc1csc(-c2cc(S(=O)(=O)Nc3cc(F)c(C#N)cc3F)c[nH]2)n1` [Cpd 661, N-(4-cyano-2,5-difluorophenyl)-5-(4-methoxy-1,3-thiazol-2-yl)-1H-pyrrole-3-sulfonamide] showed an IC50 (human GPR17 receptor) of less than 500 nM.
`N#Cc1ccc(F)c(-c2cc(S(=O)(=O)Nc3nc(F)c(OCCF)cc3F)c[nH]2)c1` [Cpd 662, 5-(5-cyano-2-fluorophenyl)-N-[3,6-difluoro-5-(2-fluoroethoxy)pyridin-2-yl]-1H-pyrrole-3-sulfonamide] showed an IC50 (human GPR17 receptor) of less than 500 nM.
For `N#Cc1cc(F)c(NS(=O)(=O)c2c[nH]c(-c3cccc4c(C(F)(F)F)coc34)c2)cc1F` [Cpd 663, N-(4-cyano-2,5-difluorophenyl)-5-[3-(trifluoromethyl)-1-benzofuran-7-yl]-1H-pyrrole-3-sulfonamide], the IC50 (human GPR17 receptor) was 500 to 5000 nM.
With `O=S(=O)(Nc1cc(F)c(OC(F)F)cc1F)c1c[nH]c(-c2csc(Cl)c2)c1` [Cpd 664, 5-(5-chlorothiophen-3-yl)-N-[4-(difluoromethoxy)-2,5-difluorophenyl]-1H-pyrrole-3-sulfonamide] the IC50 (human GPR17 receptor) was 500 to 5000 nM.
Molecule `O=S(=O)(Nc1nc(F)c(OCCF)cc1F)c1c[nH]c(-c2nccs2)c1` [Cpd 665, N-[3,6-difluoro-5-(2-fluoroethoxy)pyridin-2-yl]-5-(1,3-thiazol-2-yl)-1H-pyrrole-3-sulfonamide] has an IC50 (human GPR17 receptor) of less than 500 nM.
`O=S(=O)(Nc1cc(F)c(OC(F)F)cc1F)c1c[nH]c(-c2cc(Cl)cs2)c1` [Cpd 666, 5-(4-chlorothiophen-2-yl)-N-[4-(difluoromethoxy)-2,5-difluorophenyl]-1H-pyrrole-3-sulfonamide] showed an IC50 (human GPR17 receptor) of less than 500 nM.
Work on `N#Cc1cc(F)c(NS(=O)(=O)c2c[nH]c(-c3ncc(C(F)(F)F)s3)c2)cc1F` [Cpd 667, N-(4-cyano-2,5-difluorophenyl)-5-[5-(trifluoromethyl)-1,3-thiazol-2-yl]-1H-pyrrole-3-sulfonamide] yielded an IC50 (human GPR17 receptor) of 5000 to 50000 nM.
For `O=S(=O)(Nc1cc(F)c(OC(F)F)cc1F)c1c[nH]c(-c2nc3ccccc3s2)c1` [Cpd 668, 5-(1,3-benzothiazol-2-yl)-N-[4-(difluoromethoxy)-2,5-difluorophenyl]-1H-pyrrole-3-sulfonamide], the IC50 (human GPR17 receptor) was 500 to 5000 nM.
Work on `O=S(=O)(Nc1cc(F)c(C(F)(F)F)cc1F)c1c[nH]c(-c2ccoc2Cl)c1` [Cpd 669, 5-(2-chlorofuran-3-yl)-N-[2,5-difluoro-4-(trifluoromethyl)phenyl]-1H-pyrrole-3-sulfonamide] yielded an IC50 (human GPR17 receptor) of less than 500 nM.
In the case of `O=C(O)CCc1c(C(=O)O)[nH]c2cc(Cl)cc(Cl)c12` [MDL29,951, MDL 29,951], the “fold more potent as an NMDA receptor antagonist than as a GPR17 activator” value (NMDA receptor) is listed as “approximately ten”.
